{"source": "paper PMC6928599", "about": "“Construction of a Robust Cofactor Self-Sufficient Bienzyme Biocatalytic System for Dye Decolorization and its Mathematical Modeling” (International Journal of Molecular Sciences, 2019)", "target": "CsTMR (triphenylmethane reductase) (Citrobacter sp. MY-5, UniProt Q2TNI4)", "sequence (Q2TNI4 entry or part of it)": "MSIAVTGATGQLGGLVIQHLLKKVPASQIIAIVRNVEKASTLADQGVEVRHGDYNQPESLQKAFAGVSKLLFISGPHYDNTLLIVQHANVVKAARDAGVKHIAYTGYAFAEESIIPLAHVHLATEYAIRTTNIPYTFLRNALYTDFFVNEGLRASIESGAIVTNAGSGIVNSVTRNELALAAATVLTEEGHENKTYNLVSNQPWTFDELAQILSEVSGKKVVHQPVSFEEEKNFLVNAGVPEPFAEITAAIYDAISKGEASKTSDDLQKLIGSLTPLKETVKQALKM", "assay": "decolorization in bienzyme fed-batch system; OD616 assay", "format": "biochemical", "settings": "glucose 200 mM, NAD 1 mM, malachite green 3 µM, BzGDH for NADH regeneration, 25 °C; OD616 assay: 200 µM NADH, 20 µM malachite green, pH 7.0", "data": [{"smiles": "CN(C)c1ccc(C(=C2C=CC(=[N+](C)C)C=C2)c2ccccc2)cc1", "note": "[malachite green]", "values": [{"measurement": "decolorization in bienzyme fed-batch system; OD616 assay", "value": "The activity of CsTMR was assayed by monitoring the OD616 of malachite green"}]}]}
